In patent US12606564B2, “Adenosine receptor antagonist compounds” (ILDONG PHARMACEUTICAL CO., LTD., priority 2019, dated 2026):

Columns and labels:
[1] = biological target: T1, Human recombinant adenosine A2A receptor (Homo sapiens, UniProt P29274); test: A2A receptor (A2AR) SPA binding assay with [3H] SCH58261; design: expressed in transfected cells; host or cells: HEK293 (HKE293 [sic]), membrane preparation; details: [3H] SCH58261 radioligand
Experimental: Test compound is weighed, then dissolved in 100% DMSO to prepare 20 mM stock solution. Dilute the stock solution with DMSO into 100× final concentration, and then use this DMSO solution to perform 3-fold serial dilution for totally 12 concentrations with DMSO. 10-fold diluting the serial dilutions with assay buffer to the working concentrations. […] SCH58261 as the radioligand. The assay buffer is prepared with DPBS containing 10 mM MgCl2. 5 μL of compound working solutions (a total of 12 concentrations starting from 1 or 3 μM, 1/3 dilution) is transferred to the wells by the 12-channel pipette. A2AR membrane is pre-incubated with adenosine deaminase for 15 min at room temperature. Then SPA beads are added and the membrane-bead suspension mixture is incubated for 30 min at room temperature with the rotary mixer. […] SCH58261 radioligand solution. Final concentration of DMSO in the A2AR SPA binding assay is 1%. Sealing the plates and incubate for 1 hr at 27° C. with vigorous mixing on a plate shaker. After 1 hr, centrifuge the plate (1000 rpm, 1 min), and settle the plate for 5 min prior to counting. The signal of radiation is measured by the Microbeta2. […] Non-specific binding refers to the wells containing reaction system with the presence of 100 μM SCH58261. The dose-response curve is fitted with GraphPad Prism 5 and IC50 values are calculated by log(inhibitor) vs. response—Variable slope program with the following formula: Y=Bottom+(Top−Bottom)/(1+10^[…] ligand concentration used in assay/radio ligand Kd)
The binding affinity of selected compounds against A2A receptor was assessed using the SPA binding assay described above.

[2] = biological target: T2, Human recombinant adenosine A1 receptors (Homo sapiens, UniProt P30542); test: Human adenosine A1 receptor binding assay with [3H] DPCPX (purine compounds, Example 2.2); details: membranes of CHO-K1 cells
T2 construct: expressed in transfected cells; host or cells: CHO-K1, membrane preparation
T2 sequence (P30542 1-326): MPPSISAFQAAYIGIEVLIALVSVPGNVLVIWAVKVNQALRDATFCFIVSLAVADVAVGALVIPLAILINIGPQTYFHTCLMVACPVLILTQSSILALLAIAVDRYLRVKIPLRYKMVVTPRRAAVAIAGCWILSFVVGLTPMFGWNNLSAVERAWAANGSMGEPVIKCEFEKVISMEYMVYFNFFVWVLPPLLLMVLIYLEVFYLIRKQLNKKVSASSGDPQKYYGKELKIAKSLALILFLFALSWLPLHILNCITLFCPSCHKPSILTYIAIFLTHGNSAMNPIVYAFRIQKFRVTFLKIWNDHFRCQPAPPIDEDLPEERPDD
Experimental: Test compound is weighed, dissolved in DMSO to make a stock solution of 10 mM, diluted with DMSO to prepare working solutions, then 100-fold diluted to the indicated concentrations. Human recombinant adenosine A1 receptors expressed in CHO-K1 cells were used to prepare membranes in incubation buffer (20 mM HEPES (4-(2-hydroxyethyl)-1-piperazineethanesulfonic acid) pH 7.4, 10 mM MgCl2, 100 mM NaCl). Test compound or vehicle (2.2 μL) was added in 200 μL of membranes and incubated with 20 μL of 1 nM [^3H] DPCPX (8-cyclopentyl-1,3-dipropylxanthine) for 90 minutes at 25° C. Non-specific binding was estimated in the presence of 100 μM R(−)-PIA ((R)—N-(1-methyl-2-phenylethyl)adenosine). The incubation was stopped by vacuum filtration onto 0.3% PEI (polyethylenimine) presoaked GF/B filters using a harvester followed by four washes with ice-cold 50 mM Tris-HCl, pH 7.4, and the radioactivity on GF/B filtermats counted in a scintillation counter (PerkinElmer Topcount™) to determine [^3H] DPCPX specifically bound. Final concentration of vehicle DMSO is 1%. Data is fitted using the non-linear curve fitting routines in Meth-IQ software (ID Business Solutions Ltd., UK).
The binding affinity of selected compounds against A1 receptor was assessed using the binding assay described above.

[3] = biological target: human recombinant A2AR (Homo sapiens, UniProt P29274); test: Human A2A functional cAMP assay in human recombinant A2AR stable cell line (HEK293)
Experimental: cAMP assay was performed on human recombinant A2AR stable cell line (HEK293). The cells were cultured at 37° C. and 5% CO2 with culture medium (90% DMEM+10% FBS+500 μg/mL G418). […] Then, 100 nL compounds were transferred by Echo machine with 12 doses respectively. Cells were collected with stimulation buffer (1×HBSS with 5 mM HEPES+0.05 mM IBMX+0.1% BSA) and plated the cells at the density of 5,000 cells/well, centrifuged at 600 rpm for 3 min and then incubation with compounds at room temperature for 60 min. After that, 5 μL 4× Eu-cAMP tracer solution and 5 μL 4× ULight™-anti-cAMP solution were added into the cells, centrifuged at 600 rpm for 3 min and incubated for 60 min. cAMP signal was detected with Envision. GraphPad Prism (version 6.0) was used for the data analysis.
The A2A receptor antagonistic activity of selected compounds was assessed using the cAMP assay described above.

[4] = biological target: T1, Human recombinant adenosine A2A receptor; test: Human adenosine A2A receptor binding assay with [3H] CGS-21680 (Example 4.2); details: summary of Table 5, binding assays of Examples 4.1 and 4.2
Experimental: Test compound is weighed, dissolved in DMSO to make a stock solution of 10 mM, diluted with DMSO to prepare working solutions, then 100-fold diluted to the indicated concentrations. Human recombinant adenosine A2A receptors expressed in HEK-293 cells were used to prepare membranes in incubation buffer (50 mM Tris-HCl, pH 7.4, 10 mM MgCl2, 1 mM EDTA, 2 U/ml Adenosine Deaminase). Test compound or vehicle (2.2 μL) was added in 200 μL of membranes and incubated with 20 μL of 50 nM [^3H] […] Non-specific binding was estimated in the presence of 50 μM NECA (5′-N-ethylcarboxamidoadenosine). The incubation was stopped by vacuum filtration onto 0.3% PEI (polyethylenimine) presoaked GF/B filters using a harvester followed by four washes with ice-cold 50 mM Tris-HCl, pH 7.4, and the radioactivity on GF/B filtermats counted in a scintillation counter (PerkinElmer Topcount™) to determine [^3H] […] Final concentration of vehicle DMSO is 1%.

T1 sequence (P29274 whole entry): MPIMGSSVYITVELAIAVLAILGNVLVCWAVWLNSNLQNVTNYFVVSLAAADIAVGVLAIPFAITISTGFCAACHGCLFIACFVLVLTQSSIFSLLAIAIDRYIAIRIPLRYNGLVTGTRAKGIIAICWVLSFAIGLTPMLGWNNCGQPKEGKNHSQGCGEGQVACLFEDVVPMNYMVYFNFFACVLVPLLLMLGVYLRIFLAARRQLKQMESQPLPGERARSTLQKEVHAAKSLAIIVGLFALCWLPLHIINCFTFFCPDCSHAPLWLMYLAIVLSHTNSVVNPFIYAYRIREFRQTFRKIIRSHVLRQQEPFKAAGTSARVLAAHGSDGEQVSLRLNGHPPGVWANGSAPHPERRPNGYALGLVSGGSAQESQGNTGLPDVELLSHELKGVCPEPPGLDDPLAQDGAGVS
Sequence of human recombinant A2AR (P29274 whole entry): as above

Q: What does the source list for `N#Cc1cccc(-c2nc(N)nc3c2ncn3Cc2ccc(N)cc2F)c1` [Compound 109, 3-(2-amino-9-(4-amino-2-fluorobenzyl)-9H-purin-6-yl)benzonitrile]?
A: Ki [1]: < 0.01 µM; Ki [2]: 0.3 to 1 µM; IC50 [3]: < 0.3 µM

Q: `Cc1cc(Cn2ncc3c(-c4cccc(C#N)c4F)nc(N)nc32)ccc1N` [Compound 206, 3-(6-amino-1-(4-amino-3-methylbenzyl)-1H-pyrazolo[3,4-d]pyrimidin-4-yl)-2-fluorobenzonitrile] was tested. Which “activity as dual antagonists of both A2A and A1 receptors (in words)” value (from here on “activity as dual antagonists”) [4] did it give?
A: Its value is “potent activity as dual antagonists”.

Q: `N#Cc1cccc(-c2nc(N)nc3c2cnn3Cc2c(F)cccc2F)c1F` [Compound 213, 3-(6-amino-1-(2,6-difluorobenzyl)-1H-pyrazolo[3,4-d]pyrimidin-4-yl)-2-fluorobenzonitrile] was tested. Which “activity as dual antagonists” value [4] did it give?
A: Its value is “potent activity as dual antagonists”.

Q: `N#Cc1cccc(-c2nc(N)nc3c2cnn3Cc2c(F)cc(N)cc2F)c1` [Compound 207, 3-(6-amino-1-(4-amino-2,6-difluorobenzyl)-1H-pyrazolo[3,4-d]pyrimidin-4-yl)benzonitrile] was tested. Which “activity as dual antagonists” value [4] did it give?
A: The value was “potent activity as dual antagonists”.

Q: What does the source list for `N#Cc1cccc(-c2nc(N)nc3c2ncn3Cc2c(F)cc(N)cc2F)c1` [Compound 107, 3-(2-amino-9-(4-amino-2,6-difluorobenzyl)-9H-purin-6-yl)benzonitrile]?
A: Ki [1]: < 0.01 µM; Ki [2]: ≤ 0.3 µM; IC50 [3]: < 0.3 µM

Q: Which Ki [1] does the source give for `Cc1c(C#N)cccc1-c1nc(N)nc2c1ncn2Cc1ccc(N)cc1` [Compound 105, 3-(2-amino-9-(4-aminobenzyl)-9H-purin-6-yl)-2-methylbenzonitrile] here?
A: Its Ki is > 0.5 µM.

Q: How did the Ki [1] turn out when `N#Cc1cc(-c2nc(N)nc3c2ncn3Cc2c(F)cccc2F)ccn1` [Compound 134, 4-[2-amino-9-[(2,6-difluorophenyl)methyl]purin-6-yl]pyridine-2-carbonitrile] was run?
A: Its Ki is 0.01 to 0.1 µM.

Q: With `Cc1cc(Cn2cnc3c(-c4cc(C#N)ccn4)nc(N)nc32)ccc1N` [Compound 128, 2-[2-amino-9-[(4-amino-3-methyl-phenyl)methyl]purin-6-yl]pyridine-4-carbonitrile] as the compound, how does the Ki [1] read?
A: The Ki was < 0.01 µM.

Q: And the Ki [2]?
A: The Ki was 0.3 to 1 µM.

Q: What about the IC50 [3] of the same compound?
A: Its IC50 is 0.3 to 1 µM.

Q: How did the Ki [1] turn out when `N#Cc1ccnc(-c2nc(N)nc3c2ncn3Cc2c(F)cc(N)cc2F)c1` [Compound 124, 2-[2-amino-9-[(4-amino-2,6-difluoro-phenyl)methyl]purin-6-yl]pyridine-4-carbonitrile] was run?
A: The Ki was < 0.01 µM.

Q: And the Ki [2]?
A: Its Ki is ≤ 0.3 µM.

Q: What about the IC50 [3] of the same compound?
A: The IC50 was < 0.3 µM.

Q: Which results are given for `N#Cc1cccc(-c2nc(N)nc3c2ncn3Cc2ccc(N)cc2)c1` [Compound 101, 3-(2-amino-9-(4-aminobenzyl)-9H-purin-6-yl) benzonitrile]?
A: Ki [1]: 0.01 to 0.1 µM; Ki [2]: > 1 µM; IC50 [3]: > 1 µM

Q: `N#Cc1cccc(-c2nc(N)nc3c2ncn3Cc2ccc(N)c(C(F)(F)F)c2)c1F` [Compound 111, 3-[2-amino-9-[[4-amino-3-(trifluoromethyl)phenyl]methyl]purin-6-yl]2-fluorobenzonitrile] was tested. Which Ki [1] did it give?
A: Its Ki is 0.01 to 0.1 µM.

Q: And the Ki [2]?
A: The Ki was > 1 µM.

Q: And the IC50 [3]?
A: Its IC50 is > 1 µM.

Q: Which results are given for `Cc1cc(Cn2cnc3c(-c4cccc(C#N)c4F)nc(N)nc32)ccc1N` [Compound 106, 3-(2-amino-9-(4-amino-3-methylbenzyl)-9H-purin-6-yl)-2-fluorobenzonitrile]?
A: Ki [1]: 0.01 to 0.1 µM; Ki [2]: > 1 µM

Q: What does the source list for `N#Cc1ccnc(-c2nc(N)nc3c2ncn3Cc2ccc(N)cc2F)c1` [Compound 120, 2-[2-amino-9-[(4-amino-2-fluoro-phenyl)methyl]purin-6-yl]pyridine-4-carbonitrile]?
A: Ki [1]: < 0.01 µM; Ki [2]: 0.3 to 1 µM; IC50 [3]: < 0.3 µM

Q: With `Cc1cc(Cn2cnc3c(-c4cccc(C#N)c4)nc(N)nc32)ccc1N` [Compound 104, 3-(2-amino-9-(4-amino-3-methylbenzyl)-9H-purin-6-yl)benzonitrile] as the compound, how does the Ki [1] read?
A: The Ki was < 0.01 µM.

Q: What about the Ki [2] of the same compound?
A: The Ki was > 1 µM.

Q: And the IC50 [3]?
A: Its IC50 is < 0.3 µM.

Q: With `N#Cc1cccc(-c2nc(N)nc3c2ncn3Cc2c(F)cc(N)cc2F)c1F` [Compound 108, 3-(2-amino-9-(4-amino-2,6-difluorobenzyl)-9H-purin-6-yl)-2-fluorobenzonitrile] as the compound, how does the Ki [1] read?
A: The Ki was 0.01 to 0.1 µM.

Q: What about the Ki [2] of the same compound?
A: Its Ki is 0.3 to 1 µM.

Q: And the IC50 [3]?
A: Its IC50 is 0.3 to 1 µM.

Q: What does the source list for `N#Cc1cccc(-c2nc(N)nc3c2ncn3Cc2c(F)cccc2F)c1F` [Compound 113, 3-(2-amino-9-(2,6-difluorobenzyl)-9H-purin-6-yl)-2-fluorobenzonitrile]?
A: Ki [1]: 0.01 to 0.1 µM; Ki [2]: 0.3 to 1 µM; IC50 [3]: 0.3 to 1 µM

Q: What does the source list for `N#Cc1cccc(-c2nc(N)nc3c2ncn3Cc2ccc(N)cc2F)c1F` [Compound 103, 3-(2-amino-9-(4-amino-2-fluorobenzyl)-9H-purin-6-yl)-2-fluorobenzonitrile]?
A: Ki [1]: 0.01 to 0.1 µM; Ki [2]: > 1 µM; IC50 [3]: > 1 µM

Q: Which Ki [1] does the source give for `N#Cc1cc(-c2nc(N)nc3c2ncn3Cc2ccc(N)cc2)ccn1` [Compound 118, 4-[2-amino-9-[(4-aminophenyl)methyl]purin-6-yl]pyridine-2-carbonitrile] here?
A: The Ki was > 0.5 µM.

Q: For `N#Cc1cncc(-c2nc(N)nc3c2ncn3Cc2c(F)cc(N)cc2F)c1` [Compound 125, 5-[2-amino-9-[(4-amino-2,6-difluoro-phenyl)methyl]purin-6-yl]pyridine-3-carbonitrile], which Ki [1] is on record?
A: Its Ki is 0.1 to 0.5 µM.

Q: What does the source list for `Cc1c(C#N)cccc1-c1nc(N)nc2c1ncn2Cc1c(F)cccc1F` [Compound 114, 3-(2-amino-9-(2,6-difluorobenzyl)-9H-purin-6-yl)-2-methylbenzonitrile]?
A: Ki [1]: 0.01 to 0.1 µM; Ki [2]: > 1 µM

Q: Which results are given for `N#Cc1ccnc(-c2nc(N)nc3c2ncn3Cc2c(F)cccc2F)c1` [Compound 132, 2-[2-amino-9-[(2,6-difluorophenyl)methyl]purin-6-yl]pyridine-4-carbonitrile]?
A: Ki [1]: < 0.01 µM; Ki [2]: ≤ 0.3 µM; IC50 [3]: < 0.3 µM

Q: How did the Ki [1] turn out when `N#Cc1cccc(-c2nc(N)nc3c2ncn3Cc2ccc(N)c(C(F)(F)F)c2)c1` [Compound 110, 3-[2-amino-9-[[4-amino-3-(trifluoromethyl)phenyl]methyl]purin-6-yl]benzonitrile] was run?
A: Its Ki is < 0.01 µM.

Q: What about the Ki [2] of the same compound?
A: The Ki was 0.3 to 1 µM.

Q: What about the IC50 [3] of the same compound?
A: Its IC50 is < 0.3 µM.

Q: How did the Ki [1] turn out when `N#Cc1cccc(-c2nc(N)nc3c2ncn3Cc2ccc(N)cc2)c1F` [Compound 102, 3-(2-amino-9-(4-aminobenzyl)-9H-purin-6-yl)-2-fluorobenzonitrile] was run?
A: The Ki was 0.1 to 0.5 µM.

Q: For `N#Cc1cccc(-c2nc(N)nc3c2ncn3Cc2c(F)cccc2F)c1` [Compound 112, 3-(2-amino-9-(2,6-difluorobenzyl)-9H-purin-6-yl) benzonitrile], which Ki [1] is on record?
A: Its Ki is < 0.01 µM.

Q: What about the Ki [2] of the same compound?
A: The Ki was ≤ 0.3 µM.

Q: And the IC50 [3]?
A: Its IC50 is < 0.3 µM.

Q: For `N#Cc1cccc(-c2nc(N)nc3c2ncn3Cc2ccc(N)cc2F)n1` [Compound 119, 6-[2-amino-9-[(4-amino-2-fluoro-phenyl)methyl]purin-6-yl]pyridine-2-carbonitrile], which Ki [1] is on record?
A: Its Ki is 0.1 to 0.5 µM.

Q: For `N#Cc1cc(-c2nc(N)nc3c2ncn3Cc2c(F)cc(N)cc2F)ccn1` [Compound 126, 4-[2-amino-9-[(4-amino-2,6-difluoro-phenyl)methyl]purin-6-yl]pyridine-2-carbonitrile], which Ki [1] is on record?
A: Its Ki is 0.01 to 0.1 µM.
